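Tested at 5 concentrations; 48 h exposure; 96-well plates; endpoints linearly interpolated, else capped at highest concentration. At the GI50, growth is halved.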 The source made the active and inactive calls. Cut-off read from the data, not from the text of the source: active = GI50 up to about 1.1 µM and inactive = higher. Starred links: 1 amine or outer side, 2 acyl side, 3 side chain; linkers in the order of their positions; H or OH if unused. Non-standard residues stand in square brackets, D forms with d. Residues, ends and D or L forms follow the SMILES beside them. ξ: configuration not given here. X24 = O=C(C(CC(O)CO)O[*:1])[*:2]; Ile(3ξ) = CCC(C)[C@H](N)C(=O)O; NMeV = CN[C@H](C(=O)O)C(C)C; NMeA = CN[C@@H](C)C(=O)O; βAla = NCCC(=O)O
Columns and labels:
Test in all cases: inhibition of tumour cell growth, NCI panel, 48 h
HT-29 = test system: HT-29
MOLT-4 = test system: MOLT-4
SK-MEL-5 = test system: SK-MEL-5
HOP-92 = test system: HOP-92
SF-295 = test system: SF-295
OVCAR-4 = test system: OVCAR-4
HCC 2998 = test system: HCC 2998
IGROV-1 = test system: IGROV-1
HOP-62 = test system: HOP-62
U-251 = test system: U-251
Malme-3M = test system: Malme-3M
SNB-19 = test system: SNB-19
SF-268 = test system: SF-268
OVCAR-3 = test system: OVCAR-3
EKVX = test system: EKVX
RXF 393 = test system: RXF 393
NCI-H522 = test system: NCI-H522

Measured: GI50

CCCCCCCC/C=C\CCCCCCCC(=O)NCCN(CCN)C(=O)CCCCCCC/C=C\CCCCCCCC
inactive: HT-29 > 100 µM | MOLT-4 > 100 µM | SK-MEL-5 > 100 µM | HOP-92 > 100 µM | SF-295 > 100 µM | OVCAR-4 > 100 µM | HCC 2998 > 100 µM | IGROV-1 > 100 µM | HOP-62 > 100 µM | U-251 > 100 µM | Malme-3M > 100 µM | SNB-19 > 100 µM | SF-268 > 100 µM | OVCAR-3 78.7 µM

CC(=O)O[C@H]1CC[C@@]2(C)C(=CC[C@@H]3C2CC[C@]2(C)Nc4c(cnn4-c4ccccc4)CC32)C1 (stereo partly specified)
inactive: HT-29 4.82 µM | MOLT-4 2.07 µM | SK-MEL-5 28.1 µM | EKVX 44.6 µM | SF-295 2.69 µM | OVCAR-4 14.9 µM | RXF 393 3.53 µM | HCC 2998 16 µM | IGROV-1 20.6 µM | HOP-62 12.4 µM | U-251 4.98 µM | Malme-3M 29.9 µM | OVCAR-3 48.2 µM

O=C(O)c1c2c(cc3c(=O)cc(-c4ccccc4)oc13)CCCC2
inactive: HT-29 > 100 µM | MOLT-4 > 100 µM | SK-MEL-5 > 100 µM | HOP-92 > 100 µM | EKVX > 100 µM | SF-295 > 100 µM | NCI-H522 71.4 µM | OVCAR-4 > 100 µM | HCC 2998 > 100 µM | IGROV-1 > 100 µM | HOP-62 > 100 µM | U-251 > 100 µM | Malme-3M > 100 µM | SNB-19 > 100 µM | SF-268 > 100 µM | OVCAR-3 > 100 µM

Cc1cc(Cl)ccc1NC(=O)C1C(=O)C(=O)N(c2ccc(Cl)cc2C)C1=O (stereo unspecified)
inactive: HT-29 96.2 µM | MOLT-4 24.7 µM | SK-MEL-5 > 100 µM | HOP-92 14.9 µM | EKVX 36.8 µM | SF-295 95.5 µM | NCI-H522 60.3 µM | OVCAR-4 38.6 µM | HCC 2998 > 100 µM | IGROV-1 > 100 µM | HOP-62 > 100 µM | U-251 57.3 µM | Malme-3M > 100 µM | SNB-19 21 µM | SF-268 53 µM | OVCAR-3 36.9 µM

CCCCCCCCOCC(O)COC(C)C (stereo unspecified)
inactive: HT-29 50.7 µM | MOLT-4 17 µM | SK-MEL-5 26.2 µM | HOP-92 13.7 µM | SF-295 58.7 µM | OVCAR-4 41.4 µM | HCC 2998 26.6 µM | IGROV-1 > 100 µM | HOP-62 91.8 µM | U-251 89.3 µM | Malme-3M 61.7 µM | SNB-19 74.6 µM | SF-268 39.1 µM | OVCAR-3 16.2 µM

COc1cc(C)c(C(=O)/C=C/c2cc(OC)c(O)c(OC)c2)cc1O
inactive: HT-29 30.6 µM | MOLT-4 > 100 µM | SK-MEL-5 17 µM | EKVX 32.4 µM | SF-295 39 µM | NCI-H522 18.1 µM | OVCAR-4 21 µM | HCC 2998 16.4 µM | IGROV-1 28.9 µM | HOP-62 22.7 µM | U-251 19.6 µM | Malme-3M 20.1 µM | SNB-19 18 µM | SF-268 23.9 µM | OVCAR-3 25.2 µM

O=C(O)COc1ccc(O)c2c1C(=O)CCCC2=O
inactive: HT-29 > 100 µM | MOLT-4 > 100 µM | SK-MEL-5 > 100 µM | EKVX > 100 µM | SF-295 > 100 µM | NCI-H522 > 100 µM | OVCAR-4 > 100 µM | HCC 2998 > 100 µM | IGROV-1 > 100 µM | HOP-62 > 100 µM | U-251 > 100 µM | Malme-3M > 100 µM | SNB-19 > 100 µM | SF-268 > 100 µM | OVCAR-3 > 100 µM

O=C(/C=C\c1cccc2ccccc12)c1cccs1
inactive: HT-29 5.21 µM | MOLT-4 5.06 µM | SK-MEL-5 13.3 µM | HOP-92 11.9 µM | EKVX 12.8 µM | SF-295 15.6 µM | NCI-H522 2.52 µM | OVCAR-4 17.7 µM | HCC 2998 15.5 µM | IGROV-1 10.3 µM | HOP-62 17.7 µM | U-251 4.43 µM | Malme-3M 12.5 µM | SNB-19 12.6 µM | SF-268 11 µM | OVCAR-3 11.4 µM

O=C(O)CCSCCCN1C(=O)c2ccccc2C1=O
inactive: HT-29 > 100 µM | MOLT-4 > 100 µM | SK-MEL-5 > 100 µM | HOP-92 > 100 µM | EKVX > 100 µM | SF-295 > 100 µM | OVCAR-4 > 100 µM | RXF 393 > 100 µM | HCC 2998 > 100 µM | IGROV-1 > 100 µM | U-251 > 100 µM | Malme-3M > 100 µM | SNB-19 > 100 µM | SF-268 > 100 µM | OVCAR-3 > 100 µM

CCCCCCCC(=O)OCC(COC(=O)C(C)(C)C)OC(=O)Cc1ccccc1 (stereo unspecified)
inactive: MOLT-4 > 100 µM | SK-MEL-5 > 100 µM | HOP-92 > 100 µM | SF-295 > 100 µM | OVCAR-4 > 100 µM | HCC 2998 > 100 µM | IGROV-1 > 100 µM | HOP-62 > 100 µM | U-251 > 100 µM | Malme-3M > 100 µM | SNB-19 > 100 µM | SF-268 > 100 µM | OVCAR-3 58.3 µM

N#C/C(=N\c1ccccc1N(C(=O)c1ccccc1)C(=O)c1ccccc1)c1ccccc1
inactive: HT-29 15.3 µM | MOLT-4 3.82 µM | SK-MEL-5 70.8 µM | HOP-92 24.7 µM | EKVX > 100 µM | SF-295 8.89 µM | NCI-H522 4.91 µM | OVCAR-4 32.2 µM | HCC 2998 > 68.4 µM | IGROV-1 6.67 µM | HOP-62 > 30.7 µM | U-251 10.3 µM | Malme-3M > 100 µM | SNB-19 3.62 µM | SF-268 > 100 µM | OVCAR-3 8.91 µM

COc1cc(C2C(C(=O)O)=C(COC(C)=O)Oc3cc4c(cc32)OCO4)cc(OC)c1OC(C)=O (stereo unspecified)
inactive: HT-29 > 100 µM | MOLT-4 > 100 µM | SK-MEL-5 > 100 µM | HOP-92 > 100 µM | EKVX > 100 µM | SF-295 > 100 µM | OVCAR-4 > 100 µM | RXF 393 > 100 µM | IGROV-1 > 100 µM | HOP-62 > 100 µM | U-251 > 100 µM | Malme-3M > 100 µM | SNB-19 > 100 µM | OVCAR-3 > 100 µM

CCC(C)[C@@H]1NC(=O)[C@@H]2CCCN2C(=O)C(CC(O)CO)OC(=O)CCNC(=O)[C@H](C)N(C)C(=O)[C@H](C(C)C)N(C)C1=O (stereo partly specified) (cyclo([Ile(3ξ)][NMeV][NMeA][βAla][X24]P))
inactive: HT-29 > 100 µM | MOLT-4 43.1 µM | SK-MEL-5 > 100 µM | HOP-92 > 100 µM | SF-295 91 µM | OVCAR-4 > 100 µM | RXF 393 > 100 µM | IGROV-1 > 100 µM | HOP-62 > 100 µM | U-251 > 100 µM | Malme-3M > 100 µM | SNB-19 > 100 µM | SF-268 > 100 µM | OVCAR-3 > 100 µM

— ChEMBL document CHEMBL1201862, “PubChem BioAssay data set” (2004)
